The source of these data is patent publication US11883400B2, “Treatment of portal hypertension and cirrhosis” (Noorik Biopharmaceuticals AG, priority 2018, dated 2024).

The subject of data set [1] is patients with portopulmonary hypertension. Particulars: cited from earlier work.
The nature of data set [2]: Pharmacokinetic analysis of ambrisentan plasma concentrations in the clinical study. The data set is classed as in vivo, human. Particulars: high dose group. On the procedure:
In the context of a clinical study (ClinicalTrials.gov Identifier: NCT03827200), ambrisentan was administered to 8 adult subjects with a history of cirrhosis and portal hypertension. […] A liquid formulation of ambrisentan was used, consisting of a solution of propylene glycol:ethanol (50:50 w/w) and ambrisentan at a concentration of 5 mg/mL. The solution was reconstituted prior to administration in water or propylene glycol. All subjects were treated for 14 days. Portal pressure was estimated in this study by means of the Hepatic Vein Pressure Gradient (HVPG), the current gold standard to evaluate the degree of portal hypertension in adults with cirrhosis (as described in Bosch, J., Abraldes, J. G., Berzigotti, A., & Garcia-Pagan, J. C. (2009). The clinical use of HVPG measurements in chronic liver disease. Nature Reviews Gastroenterology & Hepatology, 6(10), 573-582). HVPG was measured at baseline and prior to the first administration of ambrisentan. Post-baseline values for HVPG were obtained at 90 minutes following the administration of the first dose of ambrisentan. After 14 days of treatment, HVPG was determined at trough (prior to the last dose) and 90 minutes following the last dose of ambrisentan. Two dose groups were evaluated in this study. […]

Data set [3] deals with adult subjects with a history of cirrhosis and portal hypertension. Description: Clinical study NCT03827200: portal pressure estimated by Hepatic Venous Pressure Gradient (HVPG). The data set is classed as in vivo, human. On the procedure:
In the context of a clinical study (ClinicalTrials.gov Identifier: NCT03827200), ambrisentan was administered to 8 adult subjects with a history of cirrhosis and portal hypertension. […] A liquid formulation of ambrisentan was used, consisting of a solution of propylene glycol:ethanol (50:50 w/w) and ambrisentan at a concentration of 5 mg/mL. The solution was reconstituted prior to administration in water or propylene glycol. All subjects were treated for 14 days. Portal pressure was estimated in this study by means of the Hepatic Vein Pressure Gradient (HVPG), the current gold standard to evaluate the degree of portal hypertension in adults with cirrhosis (as described in Bosch, J., Abraldes, J. G., Berzigotti, A., & Garcia-Pagan, J. C. (2009). The clinical use of HVPG measurements in chronic liver disease. Nature Reviews Gastroenterology & Hepatology, 6(10), 573-582). HVPG was measured at baseline and prior to the first administration of ambrisentan. Post-baseline values for HVPG were obtained at 90 minutes following the administration of the first dose of ambrisentan. After 14 days of treatment, HVPG was determined at trough (prior to the last dose) and 90 minutes following the last dose of ambrisentan. Two dose groups were evaluated in this study. In the high dose group, 4 subjects were administered 50 μg ambrisentan on day 1 subcutaneously, followed by 100 μg of ambrisentan twice a day orally for 13 days, for a total daily dose of 200 μg. On day 14, subjects in the high dose group received a final dose of 50 μg ambrisentan subcutaneously. In the low dose group, 4 subjects were administered 10 μg ambrisentan on day 1 subcutaneously, followed by 14 μg of ambrisentan once a day orally for 13 days. On day 14, subjects in the low dose group received a final dose of 10 μg ambrisentan subcutaneously.
All subjects had portal hypertension as determined by HVPG at baseline (mean 19.7 mmHg, range 9-29 mmHg). […] An initial decrease in HVPG was apparent at 90 minutes post-administration in the low-dose group, and the reduction in HVPG was even larger at day 14 when compared to day 1 (Table 2).

Data set [4] has as its system patients with early cirrhosis. The conditions noted are these: cited from earlier work.
In a further data set the test system is patients with cirrhosis. Particulars: administered through the hepatic artery, cited from earlier work.
The subject of data set [5] is patient with portopulmonary hypertension. The conditions noted are these: one case of portopulmonary hypertension; cited from earlier work.

Non-standard residues stand in square brackets, D forms with d. Residues, ends and D or L forms follow the SMILES beside them.

On to `CCCNS(=O)(=O)Nc1ncnc(OCCOc2ncc(Br)cn2)c1-c1ccc(Br)cc1` [macitentan], for which, in data set [1], the 6-minute walking distance result is “no effect” and the “Portal pressure as determined by HVPG” value is recorded as “not showing a significant difference”.

Consider `COC(c1ccccc1)(c1ccccc1)[C@H](Oc1nc(C)cc(C)n1)C(=O)O` [ambrisentan], for which the “Steady-state trough ambrisentan plasma concentration” value in data set [2] (100 μg twice daily orally for 13 days) is “about 10 ng/mL”. In data set [2] (human, plasma, subcutaneous, 50 μg at day 14, 2 hours post-administration), this compound yielded a concentration at 2 h of 18 ng/mL. The “Change in HVPG from baseline, percent change, mean” value in data set [3] (dose group 10/14 μg, N=4, Day 1, 90 m after first dose) is recorded as −6.4%; in data set [3] (dose group 10/14 μg, N=4, Day 14, 90 m after last dose), −14.1%; in data set [3] (dose group 10/14 μg, N=4, Day 14, trough (0 H)) it was −9.2%; in data set [3] (dose group 50/200 μg, N=4, Day 1, 90 m after first dose) it was 4.8%; in data set [3] (dose group 50/200 μg, N=4, Day 14, 90 m after last dose), 11.7%; in data set [3] (dose group 50/200 μg, N=4, Day 14, trough (0 H)), 9.2%.

As for `CCCC[C@@H](NC(=O)[C@@H](Cc1cn(C(=O)OC)c2ccccc12)NC(=O)[C@H](CC(C)(C)C)NC(=O)N1[C@H](C)CCC[C@@H]1C)C(=O)O` [BQ-788], the “Acute reduction of portal pressure as assessed by HVPG” value in data set [4] was “did not show any acute reduction on portal pressure”.

On to `CC(C)C[C@@H]1NC(=O)[C@@H](C(C)C)NC(=O)[C@@H]2CCCN2C(=O)[C@@H](CC(=O)O)NC(=O)[C@@H](Cc2c[nH]c3ccccc23)NC1=O` [BQ-123] (cyclo(L[dW][dD]P[dV])), for which the “Reduction of portal pressure as determined by HVPG” value in the data set on patients with cirrhosis (acute) was 18%. Further, the “Hepatic artery blood flow” value in the data set with patients with cirrhosis is “significant increase”. The “Acute reduction of portal pressure as assessed by HVPG” value in data set [4] is given as “did not show any acute reduction on portal pressure”.

For `COc1ccccc1Oc1c(NS(=O)(=O)c2ccc(C(C)(C)C)cc2)nc(-c2ncccn2)nc1OCCO` [bosentan], in data set [5], the “Portal pressure as measured by HVPG” value was “decrease” and the Pulmonary pressure entry was “decrease”.
